Here are results for 22 compounds from BindingDB's records for doi:10.1021/jm701270n (National Taiwan University, 2008).

The assay addresses Sodium-dependent dopamine transporter (Rattus norvegicus, UniProt P23977). Nature of the assay: Radioligand Binding Assay. The method, then: The assay was initiated by the addition of membranes to binding buffer containing test compound, blocker, and radioligand. The samples were incubated in triplicate. Brandel cell harvesters were used to filter the samples over Whatman GF/B filters, which were presoaked in wash buffer. The 125I retained on the filters was measured in a gamma counter.

SMILES strings stand for the structures.

Chain of Sodium-dependent dopamine transporter (P23977 whole entry): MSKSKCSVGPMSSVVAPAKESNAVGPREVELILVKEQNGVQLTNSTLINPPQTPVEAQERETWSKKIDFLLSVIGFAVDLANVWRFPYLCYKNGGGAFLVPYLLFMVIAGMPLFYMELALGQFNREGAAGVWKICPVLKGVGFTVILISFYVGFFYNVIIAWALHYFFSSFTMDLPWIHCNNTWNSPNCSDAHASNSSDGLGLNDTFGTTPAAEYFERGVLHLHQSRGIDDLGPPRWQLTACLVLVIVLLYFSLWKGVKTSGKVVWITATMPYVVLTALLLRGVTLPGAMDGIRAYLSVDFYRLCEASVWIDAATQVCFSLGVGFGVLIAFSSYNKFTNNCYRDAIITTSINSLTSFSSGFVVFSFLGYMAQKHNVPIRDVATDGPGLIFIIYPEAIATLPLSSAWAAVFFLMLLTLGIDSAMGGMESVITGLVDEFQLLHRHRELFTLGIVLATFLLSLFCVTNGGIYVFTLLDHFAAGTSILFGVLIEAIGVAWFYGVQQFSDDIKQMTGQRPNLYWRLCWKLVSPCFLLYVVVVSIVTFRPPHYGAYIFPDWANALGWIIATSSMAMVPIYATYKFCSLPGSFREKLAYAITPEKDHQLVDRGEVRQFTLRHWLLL

Broadly, the Ki is a dissociation constant, usually derived from enzyme kinetics or from competition with a known ligand. `C=C(Cc1ccccc1)CN1CCN(CCOC(c2ccccc2)c2ccccc2)CC1` [1-(2-benzylprop-2-en-1-yl)-4-[2-(diphenylmethoxy)ethyl]piperazine]: affinity was put at a Ki of 410 nM.
Still for that read-out and setting: to `C=C(Cc1ccccc1)CN1CCN(CCOC(c2ccc(F)cc2)c2ccc(F)cc2)CC1` [1-(2-benzylprop-2-en-1-yl)-4-{2-[bis(4-fluorophenyl)methoxy]ethyl}piperazine] belongs 100 nM; to `CC(O)(Cc1ccccc1)CN1CCN(CCOC(c2ccc(F)cc2)c2ccc(F)cc2)CC1` (configuration not stated) [1-(4-{2-[bis(4-fluorophenyl)methoxy]ethyl}piperazin-1-yl)-2-methyl-3-phenylpropan-2-ol], 57 nM.
Take `O=C(Cc1ccccc1)CN1CCN(CCOC(c2ccc(F)cc2)c2ccc(F)cc2)CC1` [1-(4-{2-[bis(4-fluorophenyl)methoxy]ethyl}piperazin-1-yl)-3-phenylpropan-2-one]: the inhibitory constant (Ki) is 6.5 nM.
As to `C=C(CCN1CCN(CCOC(c2ccccc2)c2ccccc2)CC1)c1ccccc1` [1-[2-(diphenylmethoxy)ethyl]-4-(3-phenylbut-3-en-1-yl)piperazine], the inhibition constant (Ki) (pH 7.4, 4 °C) came to 30 nM.
Same read-out and setting: then `C[C@H](Cc1ccccc1)CN1CCN(CCOC(c2ccc(F)cc2)c2ccc(F)cc2)CC1` [1-[(2R)-2-benzylpropyl]-4-{2-[bis(4-fluorophenyl)methoxy]ethyl}piperazine], with 17 nM.
Same read-out and setting: then `C[C@@H](Cc1ccccc1)CN1CCN(CCOC(c2ccc(F)cc2)c2ccc(F)cc2)CC1` [1-[(2S)-2-benzylpropyl]-4-{2-[bis(4-fluorophenyl)methoxy]ethyl}piperazine], with 17 nM; and `C=C(CCN1CCN(CCOC(c2ccc(F)cc2)c2ccc(F)cc2)CC1)c1ccccc1` [1-{2-[bis(4-fluorophenyl)methoxy]ethyl}-4-(3-phenylbut-3-en-1-yl)piperazine], with 18 nM.
Consider `FC[C@@H](Cc1ccccc1)N1CCN(CCOC(c2ccc(F)cc2)c2ccc(F)cc2)CC1` [1-{2-[bis(4-fluorophenyl)methoxy]ethyl}-4-[(2R)-1-fluoro-3-phenylpropan-2-yl]piperazine], for which the Ki was 110 nM.
On to `Fc1ccc(C(OCCN2CCN(C[C@H](F)Cc3ccccc3)CC2)c2ccc(F)cc2)cc1` [1-{2-[bis(4-fluorophenyl)methoxy]ethyl}-4-[(2R)-2-fluoro-3-phenylpropyl]piperazine], for which, under “pH 7.4, 4 °C”, the Ki worked out at 22 nM. This lies in the double-digit nanomolar range.
`CO[C@H](Cc1ccccc1)CN1CCN(CCOC(c2ccc(F)cc2)c2ccc(F)cc2)CC1` [1-{2-[bis(4-fluorophenyl)methoxy]ethyl}-4-[(2R)-2-methoxy-3-phenylpropyl]piperazine] registered a Ki (pH 7.4, 4 °C) of 27 nM.
For the compound `FC[C@H](Cc1ccccc1)N1CCN(CCOC(c2ccc(F)cc2)c2ccc(F)cc2)CC1` [1-{2-[bis(4-fluorophenyl)methoxy]ethyl}-4-[(2S)-1-fluoro-3-phenylpropan-2-yl]piperazine], the inhibition constant Ki came out at 140 nM.
Compound `Fc1ccc(C(OCCN2CCN(C[C@@H](F)Cc3ccccc3)CC2)c2ccc(F)cc2)cc1` [1-{2-[bis(4-fluorophenyl)methoxy]ethyl}-4-[(2S)-2-fluoro-3-phenylpropyl]piperazine] registered a Ki (pH 7.4, 4 °C) of 2.7 nM.
Same read-out and setting: to `CO[C@@H](Cc1ccccc1)CN1CCN(CCOC(c2ccc(F)cc2)c2ccc(F)cc2)CC1` [1-{2-[bis(4-fluorophenyl)methoxy]ethyl}-4-[(2S)-2-methoxy-3-phenylpropyl]piperazine] belongs 29 nM.
`CC(O)(Cc1ccccc1)CN1CCN(CCOC(c2ccccc2)c2ccccc2)CC1` (configuration not stated) [1-{4-[2-(diphenylmethoxy)ethyl]piperazin-1-yl}-2-methyl-3-phenylpropan-2-ol] registered an inhibition constant (Ki) of 150 nM.
For the compound `O=C(Cc1ccccc1)CN1CCN(CCOC(c2ccccc2)c2ccccc2)CC1` [1-{4-[2-(diphenylmethoxy)ethyl]piperazin-1-yl}-3-phenylpropan-2-one], the affinity corresponds to a Ki of 10 nM.
Same read-out and setting: to `O=C(CN1CCN(CCOC(c2ccc(F)cc2)c2ccc(F)cc2)CC1)c1ccccc1` [2-(4-{2-[bis(4-fluorophenyl)methoxy]ethyl}piperazin-1-yl)-1-phenylethan-1-one] belongs 54 nM; to `O=C(CN1CCN(CCOC(c2ccccc2)c2ccccc2)CC1)c1ccccc1` [2-{4-[2-(diphenylmethoxy)ethyl]piperazin-1-yl}-1-phenylethan-1-one], 450 nM.
Consider `CC(O)(CCN1CCN(CCOC(c2ccc(F)cc2)c2ccc(F)cc2)CC1)c1ccccc1` (configuration not stated) [4-(4-{2-[bis(4-fluorophenyl)methoxy]ethyl}piperazin-1-yl)-2-phenylbutan-2-ol], for which the Ki (pH 7.4, 4 °C) amounted to 4 nM. This counts as single-digit nanomolar.
`CC(O)(CCN1CCN(CCOC(c2ccccc2)c2ccccc2)CC1)c1ccccc1` (configuration not stated) [4-{4-[2-(diphenylmethoxy)ethyl]piperazin-1-yl}-2-phenylbutan-2-ol] showed a Ki (pH 7.4, 4 °C) of 7 nM. Against the preceding compound, the Ki is about 1.8-fold higher.
On the same count and under the same terms, to `N[C@H](Cc1ccccc1)CN1CCN(CCOC(c2ccc(F)cc2)c2ccc(F)cc2)CC1` [(2R)-1-(4-{2-[bis(4-fluorophenyl)methoxy]ethyl}piperazin-1-yl)-3-phenylpropan-2-amine] belongs 20 nM; to `N[C@@H](Cc1ccccc1)CN1CCN(CCOC(c2ccc(F)cc2)c2ccc(F)cc2)CC1` [(2S)-1-(4-{2-[bis(4-fluorophenyl)methoxy]ethyl}piperazin-1-yl)-3-phenylpropan-2-amine], 39 nM.
